Results taken from US8691850B2, “Substituted phenylaminothiazoles and use thereof” (Bayer Intellectual Property GmbH, priority 2004, dated 2014).

N#Cc1c(N)nc(SCc2csc(Nc3cccc(Cl)c3)n2)c(C#N)c1-c1ccc(OCC(O)CO)cc1 (stereo not shown) [Example 1, 2-Amino-6-[({2-[(3-chlorophenyl)amino]-1,3-thiazol-4-yl}methyl)thio]-4-[4-(2,3-dihydroxypropoxy)phenyl]pyridine-3,5-dicarbonitrile] gave a melting point of 192 to 194 °C.
